Source: article PMC12715756 (ACS Chemical Neuroscience, 2025)
Where two headings read alike, the source gives them in different places.

Assays:
male Swiss CD-1 mice = assay: Horizontal locomotor activity (HLA); format: in vivo; details: for effect on horizontal locomotor activity: 2.5, 10, 25 mg/kg i.p., 120 min, ceiling effect at 25 mg/kg
Method: (§1) Male Swiss CD-1 mice (Janvier, Le Genest, France), weighing 30–35 g and aged 6–8 weeks, were used for HLA, thigmotaxis, CPP, and core body temperature experiments. Animals were housed under temperature-controlled conditions (22 ± 1 °C) with a 12 h light/dark cycle and had free access to food and water (standard laboratory diet, Panlab SL, Barcelona, Spain). Doses for HLA, thigmotaxis, CPP, and core body temperature experiments were calculated based on the free base form of each compound. For HTR experiments, male C57BL/6J mice (6–8 weeks old) were obtained from Jackson Laboratories (Bar Harbor, ME, USA) and housed up to four per cage with a reversed light-cycle (lights on at 1900 h, off at 0700 h). Food and water were provided ad libitum, except during behavioral testing. Testing was conducted between 1000 and 1830 h. Doses for HTR experiments were calculated based on the respective salt forms of the compounds.
A habituation phase was performed to reduce the stress and novelty associated with handling and injection. During this phase, which lasted for two consecutive days, mice received an intraperitoneal (ip) saline injection and were immediately placed into a black Plexiglas Open Field (OF) arena (25 × 25 × 40 cm) under low-light conditions and white noise for 30 min. On the test day, their horizontal locomotor activity (HLA) was measured. […] HLA was video monitored for 2 h, and a specific tracking software (Smart 3.0 Panlab, Barcelona, Spain) was used to measure their total traveled distance (in cm). Center Versus Periphery: The thigmotactic effects of the test compounds, widely considered as anxiety-like effects, were assessed through an OF test. Each mouse was individually placed in the center of an open-field arena (25 cm length × 25 cm width × 40 cm height). The time spent, in seconds, in the center (8 × 8 cm) or the periphery of the arena was monitored for 2 h (Smart 3.0 Panlab, Barcelona, Spain).

male C57BL/6J mice = assay: Head-twitch response (HTR); format: in vivo; details: IP, 30 min, doses based on the salt form
Method: as §1
The HTR was assessed using a head-mounted magnet and a magnetometer detection coil. Mice were anesthetized, a small incision was made in the scalp, and a small neodymium magnet was attached to the dorsal surface of the cranium by using dental cement. Following a two week recovery period, HTR experiments were carried out in a well-lit room with at least 7 days between sessions to avoid carryover effects. Mice (N = 4–7/group) received intraperitoneal (IP) injections of vehicle (saline) or test drug (5 mL/kg injection volume), and then activity was recorded in a glass cylinder surrounded by a magnetometer coil for 30 min. Doses for HTR experiments were calculated based on the respective salt forms of the compounds. Coil voltage was low-pass filtered (1 kHz cutoff frequency), amplified, digitized (20 kHz sampling rate, 16-bit ADC resolution), and saved to disk using a Powerlab 8/35 data acquisition system with LabChart software (ver. 8.1 ADInstruments, Colorado Springs, CO, USA). To detect head twitches, events in the recordings were transformed to scalograms, deep features were extracted using the deep convolutional neural network ResNet-50, and then the images were classified using a support vector machine (SVM). Head twitch counts were analyzed using one-way ANOVA. Posthoc comparisons were made using Dunnett’s test.

SERT [1] = target: T1, SERT (Homo sapiens, UniProt P31645); assay: Uptake inhibition assay, [3H]5-HT uptake in HEK293 cells; format: cell-based; design: expressed in transfected cells
T1 sequence (P31645 whole entry): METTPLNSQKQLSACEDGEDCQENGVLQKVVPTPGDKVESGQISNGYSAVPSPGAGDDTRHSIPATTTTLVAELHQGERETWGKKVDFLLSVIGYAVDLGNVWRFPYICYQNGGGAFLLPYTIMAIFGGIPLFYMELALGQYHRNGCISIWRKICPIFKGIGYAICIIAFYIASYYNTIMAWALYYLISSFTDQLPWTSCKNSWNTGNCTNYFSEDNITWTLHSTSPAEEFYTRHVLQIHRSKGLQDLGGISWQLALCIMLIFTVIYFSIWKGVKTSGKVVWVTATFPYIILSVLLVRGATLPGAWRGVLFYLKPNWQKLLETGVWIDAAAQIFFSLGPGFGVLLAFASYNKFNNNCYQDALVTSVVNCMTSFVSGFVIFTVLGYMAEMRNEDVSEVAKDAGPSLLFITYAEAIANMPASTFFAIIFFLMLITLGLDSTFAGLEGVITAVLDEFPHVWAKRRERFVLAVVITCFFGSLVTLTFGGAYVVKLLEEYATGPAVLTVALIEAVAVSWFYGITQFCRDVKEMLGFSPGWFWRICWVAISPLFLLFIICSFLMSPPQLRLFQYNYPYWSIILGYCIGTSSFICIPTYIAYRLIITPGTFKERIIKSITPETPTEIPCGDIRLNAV

[2] = Metabolic stability, substrate depletion in pooled human liver microsomes; details: for CLint scaled at 0.5 μM / half-life at 0.5 μM / microsomal CLint at 0.5 μM: human, pooled human liver microsomes; for clearance classification: pHLM
SERT [3] = target: T1, SERT; assay: Release (superfusion) assay, SERT mediated [3H]5-HT efflux; details: for Emax: read-out: Emax [95%-CI], SERT mediated [3H]5-HT efflux
NET = NET (Homo sapiens, UniProt P23975); assay: Uptake inhibition assay, [3H]MPP+ uptake in HEK293 cells; format: cell-based; design: expressed in transfected cells; details: HEK293 cells, 0.02 μM [3H]MPP+; mean ± SD; read-out: IC50 ± SD, [3H]MPP+ uptake NET
Chain of NET (P23975 whole entry): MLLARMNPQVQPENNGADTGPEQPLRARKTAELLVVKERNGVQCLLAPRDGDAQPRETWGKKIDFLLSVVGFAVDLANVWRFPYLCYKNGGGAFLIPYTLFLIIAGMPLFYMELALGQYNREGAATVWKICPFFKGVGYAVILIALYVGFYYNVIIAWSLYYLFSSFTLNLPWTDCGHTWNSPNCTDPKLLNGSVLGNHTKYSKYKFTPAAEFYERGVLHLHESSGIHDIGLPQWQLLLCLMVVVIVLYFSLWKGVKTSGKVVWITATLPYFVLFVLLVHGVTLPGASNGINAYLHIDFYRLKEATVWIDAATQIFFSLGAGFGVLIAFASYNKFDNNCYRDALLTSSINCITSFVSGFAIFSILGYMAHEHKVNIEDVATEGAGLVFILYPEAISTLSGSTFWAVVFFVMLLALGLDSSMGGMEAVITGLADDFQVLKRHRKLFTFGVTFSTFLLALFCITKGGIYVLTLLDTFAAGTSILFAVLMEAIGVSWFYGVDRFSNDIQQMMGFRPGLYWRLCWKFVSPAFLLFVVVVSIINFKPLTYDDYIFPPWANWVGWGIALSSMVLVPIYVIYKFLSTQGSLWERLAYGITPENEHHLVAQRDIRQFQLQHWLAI

DAT = DAT (Homo sapiens, UniProt Q01959); details: uptake inhibition; DAT/SERT ratio = 1/DAT / 1/SERT
Chain of DAT (Q01959 whole entry): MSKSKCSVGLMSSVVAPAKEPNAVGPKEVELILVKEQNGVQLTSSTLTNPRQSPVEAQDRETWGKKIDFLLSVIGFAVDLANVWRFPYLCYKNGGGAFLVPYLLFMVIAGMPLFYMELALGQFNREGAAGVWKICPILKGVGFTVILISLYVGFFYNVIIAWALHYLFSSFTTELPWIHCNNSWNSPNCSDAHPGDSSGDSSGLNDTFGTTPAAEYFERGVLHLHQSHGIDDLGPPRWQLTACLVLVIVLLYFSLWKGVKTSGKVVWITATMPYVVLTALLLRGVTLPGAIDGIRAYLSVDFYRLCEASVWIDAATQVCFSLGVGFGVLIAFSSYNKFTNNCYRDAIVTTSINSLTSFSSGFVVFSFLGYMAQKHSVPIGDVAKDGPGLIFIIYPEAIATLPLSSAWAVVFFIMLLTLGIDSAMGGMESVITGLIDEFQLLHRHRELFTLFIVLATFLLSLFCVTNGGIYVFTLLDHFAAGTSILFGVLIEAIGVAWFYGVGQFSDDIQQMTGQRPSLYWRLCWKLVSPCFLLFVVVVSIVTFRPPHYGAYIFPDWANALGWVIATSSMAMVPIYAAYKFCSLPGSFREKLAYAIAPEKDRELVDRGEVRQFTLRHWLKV

5-HT2C = target: T2, 5-HT2C (Homo sapiens, UniProt P28335); assay: cell-based; details: for EC50: Gq dissociation BRET; for Emax: HEK-293T, read-out: Emax ± SEM, %5-HT response 5-HT2C
T2 construct: expressed in transfected cells; host or cells: HEK293T (ATCC; RRID:CVCL_0063), transient transfection
T2 sequence (P28335 33-458): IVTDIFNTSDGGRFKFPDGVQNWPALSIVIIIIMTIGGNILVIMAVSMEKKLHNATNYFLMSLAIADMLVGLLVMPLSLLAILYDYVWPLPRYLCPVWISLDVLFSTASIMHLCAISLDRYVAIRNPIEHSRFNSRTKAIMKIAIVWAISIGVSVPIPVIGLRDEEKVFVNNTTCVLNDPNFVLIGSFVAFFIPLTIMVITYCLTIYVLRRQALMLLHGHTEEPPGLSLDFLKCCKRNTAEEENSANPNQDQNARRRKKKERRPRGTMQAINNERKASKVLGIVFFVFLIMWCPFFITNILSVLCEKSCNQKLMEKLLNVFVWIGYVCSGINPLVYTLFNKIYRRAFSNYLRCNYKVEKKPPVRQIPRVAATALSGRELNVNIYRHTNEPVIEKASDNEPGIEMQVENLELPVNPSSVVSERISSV

5-HT2A = target: T3, 5-HT2A (Homo sapiens, UniProt P28223); assay: Gq dissociation BRET assay in HEK293T cells; format: cell-based; details: for Emax ± SEM, %5-HT response 5-HT2A / EC50: Gq dissociation BRET; for Emax ± SEM, %5-HT response 5-HT2A: relative to 5-HT
T3 construct: expressed in transfected cells; host or cells: HEK293T (ATCC; RRID:CVCL_0063), transient transfection
T3 sequence (P28223 whole entry): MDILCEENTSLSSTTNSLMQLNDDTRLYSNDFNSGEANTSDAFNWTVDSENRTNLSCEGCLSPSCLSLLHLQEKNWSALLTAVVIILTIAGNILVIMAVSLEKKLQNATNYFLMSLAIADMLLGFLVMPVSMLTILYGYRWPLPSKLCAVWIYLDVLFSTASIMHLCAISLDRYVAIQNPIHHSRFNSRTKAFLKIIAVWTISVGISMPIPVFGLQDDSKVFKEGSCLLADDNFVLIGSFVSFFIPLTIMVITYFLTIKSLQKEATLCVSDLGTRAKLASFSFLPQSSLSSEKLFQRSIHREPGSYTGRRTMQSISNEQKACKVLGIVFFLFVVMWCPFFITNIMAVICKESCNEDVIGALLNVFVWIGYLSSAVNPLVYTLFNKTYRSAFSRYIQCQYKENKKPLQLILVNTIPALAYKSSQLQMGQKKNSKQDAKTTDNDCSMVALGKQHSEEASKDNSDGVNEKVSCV

SMILES	effect on horizontal locomotor activity (male Swiss CD-1 mice)	HTR counts (male C57BL/6J mice)	IC50 (SERT [1])	CLint scaled at 0.5 μM [2]	half-life at 0.5 μM [2]	microsomal CLint at 0.5 μM [2]	clearance classification [2]	EC50 (SERT [3])	type of releaser at SERT (SERT [3])	Emax (SERT [3])	IC50 (NET)	DAT/SERT ratio (IC50) (DAT)	EC50 (5-HT2C)	Emax (5-HT2C)	Emax ± SEM, %5-HT response 5-HT2A (5-HT2A)	EC50 (5-HT2A; read-out: EC50 5-HT2A)	Emax (5-HT2A; HEK-293T, read-out: Emax ± SEM, %5-HT response 5-HT2A, Gq dissociation BRET, relative to 5-HT)	efficacy at inducing locomotion, in comparison to SDMA and MDMA (male Swiss CD-1 mice; 10 mg/kg i.p.)	EC50 (5-HT2A; read-out: pEC50 ± SEM 5-HT2A (converted))
CNC(C)Cc1ccc2c(c1)SCO2 (centres unmarked) [SDMA, 1-(1,3-benzoxathiol-5-yl)-N-methylpropan-2-amine]	induced hyperlocomotion	Neither MDMA nor SDMA induced an appreciable increase in HTR counts	4 ± 0.87 µM	0.504 L/h/kg	1.18 h	9.8 µL/min/mg	low clearance compounds	0.18 µM	partial releasers	71.5%	0.77 ± 0.39 µM	2.15	0.656 µM	79 ± 5.3%	68.2 ± 1.8%	1.4 µM	< 70%	–	–
CC(N)Cc1ccc2c(c1)SCO2 (centres unmarked) [SDA, 1-(1,3-benzoxathiol-5-yl)propan-2-amine]	induced hyperlocomotion	dose-related increase in HTR counts peaking at 3 mg/kg	3.09 ± 0.68 µM	0.582 L/h/kg	1.02 h	11.4 µL/min/mg	low clearance compounds	0.27 µM	partial releasers	70.5%	0.85 ± 0.24 µM	2.42	0.0481 µM	92.9 ± 4.9%	92.4 ± 2.0%	0.34 µM	–	significantly higher efficacy	0.302 µM
